The values that follow are results of earlier work, collected in US8431806B2, “Liposomal formulations of anthracycline agents and cytidine analogs” (Celator Pharmaceuticals, Inc., priority 2004, dated 2013).

The conditions of this data set: in vivo.

Regarding `COc1cccc2c1C(=O)c1c(O)c3c(c(O)c1C2=O)C[C@@](O)(C(C)=O)C[C@@H]3O[C@H]1C[C@H](N)[C@H](O)[C@H](C)O1` [Daunorubicin], the half-life for elimination is 19 h. The oral absorption result (po) was “low”.
